≈ marks a conversion by molar mass, not a printed value.
Key:
[1] = system: Staphylococcus aureus; assay: Antibacterial activity against Staphylococcus aureus ATCC 9144 assessed as growth inhibition after 24 hrs by double dilution method; format: functional; settings: ATCC 9144, 24 h
[2] = Induction of hemolysis in rat RBC assessed as hemoglobin release at 32 to 128 ug/ml after 1 hr by microplate reader analysis; format: cell-based; settings: erythrocyte
[3] = system: Pseudomonas aeruginosa; assay: Antibacterial activity against Pseudomonas aeruginosa ATCC 33347 assessed as growth inhibition after 24 hrs by double dilution method; format: functional; settings: ATCC 33347, 24 h
[4] = system: Staphylococcus epidermidis; assay: Antibacterial activity against Staphylococcus epidermidis ATCC 35984 assessed as growth inhibition after 24 hrs by double dilution method; format: functional; settings: ATCC 35984, 24 h
[5] = system: Staphylococcus epidermidis; assay: Antibacterial activity against Staphylococcus epidermidis ATCC 35984 assessed as biofilm growth inhibition after 24 hrs by double dilution method; format: functional
[6] = system: Shigella sonnei; assay: Antibacterial activity against O-antigen negative Shigella sonnei clinical isolate 6831 assessed as growth inhibition after 24 hrs by double dilution method; format: functional; settings: isolate 6831, 24 h
[7] = system: Staphylococcus epidermidis; assay: Antibacterial activity against Staphylococcus epidermidis ATCC 12228 assessed as growth inhibition after 24 hrs by double dilution method; format: functional; settings: ATCC 12228, 24 h
[8] = system: Staphylococcus aureus; assay: Antibacterial activity against Methicillin-resistant Staphylococcus aureus assessed as growth inhibition after 24 hrs by double dilution method; format: functional
[9] = system: Enterococcus; assay: Antibacterial activity against vancomycin-resistant Enterococcus assessed as growth inhibition after 24 hrs by double dilution method; format: functional
[10] = system: Shigella sonnei; assay: Antibacterial activity against O-antigen positive Shigella sonnei clinical isolate 6831 assessed as growth inhibition after 24 hrs by double dilution method; format: functional; settings: isolate 6831, 24 h
[11] = system: Streptococcus mutans; assay: Antibacterial activity against Streptococcus mutans UA159 assessed as growth inhibition after 24 hrs by double dilution method; format: functional; settings: UA159, 24 h
[12] = Antibacterial activity against Streptococcus pyogenes serotype M12 strain MGAS9429 assessed as growth inhibition after 24 hrs by double dilution method; format: functional; settings: MGAS9429, 24 h
[13] = system: Streptococcus mutans; assay: Antibacterial activity against Streptococcus mutans UA159 assessed as biofilm growth inhibition after 24 hrs by double dilution method; format: functional
[14] = system: Enterococcus faecalis; assay: Antibacterial activity against Enterococcus faecalis ATCC 29212 assessed as growth inhibition after 24 hrs by double dilution method; format: functional; settings: ATCC 29212, 24 h
[15] = Induction of hemolysis in rat RBC assessed as hemoglobin release at 64 ug/ml after 1 hr by microplate reader analysis; format: cell-based, Erythrocyte; settings: red blood cells, read-out: Activity
[16] = Induction of hemolysis in rat RBC assessed as hemoglobin release at 32 ug/ml after 1 hr by microplate reader analysis; format: cell-based, Erythrocyte; settings: red blood cells, read-out: Activity
[17] = Induction of hemolysis in rat RBC assessed as hemoglobin release at 128 ug/ml after 1 hr by microplate reader analysis; format: cell-based, Erythrocyte; settings: red blood cells, read-out: Activity

Structure (SMILES)	MIC [1] [µg/mL]	Activity [2]	MIC [3] [µg/mL]	MIC [4] [µg/mL]	MBIC [5] [µg/mL]	MIC [6] [µg/mL]	MIC [7] [µg/mL]	MIC [8] [µg/mL]	MIC [9] [µg/mL]	MIC [10] [µg/mL]	MIC [11] [µg/mL]	MIC [12] [µg/mL]	MBIC [13] [µg/mL]	MIC [14] [µg/mL]	hemolysis at 1 h, 64 ug/ml [15] [%]	hemolysis at 1 h, 32 ug/ml [16] [%]	hemolysis at 1 h, 128 ug/ml [17] [%]
CCCCCCCCCCCCS(=O)(=O)C[C@H]1O[C@H](O[C@@H]2[C@@H](O)[C@H](O[C@H]3O[C@H](CN)[C@@H](O)C[C@H]3N)[C@@H](N)C[C@H]2N)[C@H](O)[C@@H](N)[C@@H]1O	64 (≈ 93.6 µM)	Toxic	> 128	64 (≈ 93.6 µM)	32	> 128	128 (≈ 187 µM)	> 128	64 (≈ 93.6 µM)	> 128	16 (≈ 23.4 µM)	32 (≈ 46.8 µM)	16	> 128			
CCCCCCCCCCCCCCS(=O)(=O)C[C@H]1O[C@H](O[C@@H]2[C@@H](O)[C@H](O[C@H]3O[C@H](CN)[C@@H](O)C[C@H]3N)[C@@H](N)C[C@H]2N)[C@H](O)[C@@H](N)[C@@H]1O	16 (≈ 22.5 µM)		128 (≈ 180 µM)	16 (≈ 22.5 µM)	8	64 (≈ 89.9 µM)	16 (≈ 22.5 µM)	64 (≈ 89.9 µM)	32 (≈ 44.9 µM)	32 (≈ 44.9 µM)	4 (≈ 5.62 µM)	4 (≈ 5.62 µM)	4	64 (≈ 89.9 µM)	74.4	23	
CCCCCCCCCCCCc1cn(C[C@H]2O[C@H](O[C@@H]3[C@@H](O)[C@H](O[C@H]4O[C@H](CN)[C@@H](O)C[C@H]4N)[C@@H](N)C[C@H]3N)[C@H](O)[C@@H](N)[C@@H]2O)nn1	16 (≈ 23.3 µM)		64 (≈ 93.2 µM)	8 (≈ 11.6 µM)	16	64 (≈ 93.2 µM)	16 (≈ 23.3 µM)	128 (≈ 186 µM)	32 (≈ 46.6 µM)	64 (≈ 93.2 µM)	4 (≈ 5.82 µM)	8 (≈ 11.6 µM)	4	128 (≈ 186 µM)	26.3		89.1
CCCCCCCCCCCCCCCCSC[C@H]1O[C@H](O[C@@H]2[C@@H](O)[C@H](O[C@H]3O[C@H](CN)[C@@H](O)C[C@H]3N)[C@@H](N)C[C@H]2N)[C@H](O)[C@@H](N)[C@@H]1O	16 (≈ 22.6 µM)		> 128	8 (≈ 11.3 µM)		64 (≈ 90.4 µM)	4 (≈ 5.65 µM)	64 (≈ 90.4 µM)	64 (≈ 90.4 µM)	32 (≈ 45.2 µM)	4 (≈ 5.65 µM)	4 (≈ 5.65 µM)		128 (≈ 181 µM)	37.9		
CCCCCCCCCCCCCCCCc1cn(C[C@H]2O[C@H](O[C@@H]3[C@@H](O)[C@H](O[C@H]4O[C@H](CN)[C@@H](O)C[C@H]4N)[C@@H](N)C[C@H]3N)[C@H](O)[C@@H](N)[C@@H]2O)nn1	16 (≈ 21.5 µM)		> 128	8 (≈ 10.8 µM)		64 (≈ 86.1 µM)	4 (≈ 5.38 µM)	32 (≈ 43.1 µM)	16 (≈ 21.5 µM)	128 (≈ 172 µM)	8 (≈ 10.8 µM)	16 (≈ 21.5 µM)		128 (≈ 172 µM)	37.9		
CCCCCCCCCCCCCCCCC(=O)NC[C@H]1O[C@H](O[C@@H]2[C@@H](O)[C@H](O[C@H]3O[C@H](CN)[C@@H](O)C[C@H]3N)[C@@H](N)C[C@H]2N)[C@H](O)[C@@H](N)[C@@H]1O	8 (≈ 11.1 µM)		128 (≈ 178 µM)	4 (≈ 5.56 µM)		32 (≈ 44.5 µM)	4 (≈ 5.56 µM)	32 (≈ 44.5 µM)	32 (≈ 44.5 µM)	32 (≈ 44.5 µM)	4 (≈ 5.56 µM)	8 (≈ 11.1 µM)		128 (≈ 178 µM)	37.9		

— ChEMBL document CHEMBL3217422, “Design of membrane targeting tobramycin-based cationic amphiphiles with reduced hemolytic activity” (Medchemcomm, 2013)
